Results as given in patent US9708268B2, “ROR modulators and their uses” (INNOV17 LLC, priority 2012, dated 2017).

Legend:
IL-17A [1] = test: TH17 cytokine inhibition as measured by ELISA (IL-17A); format: cell-based; conditions: 120 h; human CD4+ T cells differentiated to TH17 over 5 days, supernatant ELISA, vs DMSO
Protocol: (§1) Peripheral blood mononuclear cells (PBMCs) were sourced from freshly prepared leukocyte enriched plasma (buffy coat) from healthy volunteers from which PBMCs were isolated by density gradient centrifugation using Ficoll-Paque™ PLUS (GE Healthcare). Naïve CD4+ T cells were isolated using the Naïve CD4+ T cell Isolation Kit II (Miltenyi Biotec) as per manufacturer's instructions. CD4+ T cells were plated at 5×10^4 cells/well in 96 well plates pre-coated with immobilized human (h)-αCD3 antibody (eBioscience) then differentiated to TH17 cells using h-αCD28, h-αIFN-γ, h-αIL-4, h-IL-6, h-IL-23, […], h-TGF-β1 (eBioscience) and maintained in a cell culture incubator at 37° C. with 5% CO2 in TexMACS Medium (Miltenyi Biotec) supplemented with 1% Penicillin/Streptomycin (Lonza) over 5 days.
(§2) Human CD4+ T cells were differentiated to TH17 cells as described in the presence or absence of various concentrations of compounds in a final concentration of 0.1% DMSO in TexMACS medium. Supernatants were collected and stored at −20° C. until they were to be assayed for IL-17A, IL-17F, IL-17AF, IL-21 and/or IL-22 levels as determined by Ready-Set-Go ELISA kits (eBioscience) as per manufacturer's instructions. Endpoint absorbance was read at 450 nm and 570 nm according to manufacturer's instructions (eBioscience) using a microplate reader (Perkin Elmer). The percentage of cytokine inhibition was calculated with reference to DMSO treated cells and the IC50s were determined by GraphPad Prism software and presented in the table below.

TH17 cells = test: TH17 cellular proliferation (Prestoblue); format: cell-based, human; conditions: 3 μM compound, after 5 day TH17 differentiation, relative to DMSO treated cells
Protocol: as §1
Cellular proliferation was assessed in the presence or absence of 3 μM compound using Prestoblue® Cell Viability Reagent (Life Technologies) as per manufacturer's instructions using absorbance as the output measured by a microplate reader (Perkin Elmer) after 30 minutes of incubation of cells and reagent. A standard curve developed by plotting varying cell numbers versus absorbance was used to assess differences in cellular proliferation between compound treated or untreated cells after the 5 day TH17 differentiation period.

IL-22 [2] = test: TH17 cytokine inhibition as measured by ELISA (IL-22); format: cell-based; conditions: 120 h; human CD4+ T cells differentiated to TH17 over 5 days, supernatant ELISA, vs DMSO
Protocol: as §1, §2

[3] = TH17 cell viability (Prestoblue); format: cell-based; design: concentration or dose not given beside the values; conditions: human; percentage of DMSO treated cells; read-out: % viability of compound treated TH17 cells
Protocol: as §1
Cells were assayed for viability in the presence or absence of compound using Prestoblue® Cell Viability Reagent (Life Technologies) as per manufacturer's instructions after 30 minutes incubation of TH17 cells with reagent. Absorbance was measured at 570 nm and 600 nm using a microplate reader (Perkin Elmer) and data were analyzed as per manufacturer's instructions. Cell viability was expressed as a percentage of DMSO treated cells.

IL-17F [4] = test: TH17 cytokine inhibition as measured by ELISA (IL-17F); format: cell-based; conditions: 120 h; human CD4+ T cells differentiated to TH17 over 5 days, supernatant ELISA, vs DMSO
Protocol: as §1, §2

IL-21 = test: Real-time qRT-PCR gene expression in TH17 cells (IL-21); format: cell-based, human; design: key: A: No change in gene expression observed relative to DMSO treated TH17 cells; B: Decreased gene expression observed relative to DMSO treated TH17 cells; C: Increased gene expression observed relative to DMSO treated TH17 cells; conditions: mRNA
Protocol: as §1
(§3) RNA was isolated from TH17 cells and cDNA was synthesized using the Verso cDNA kit (Thermo Scientific) as per manufacturer's instructions. IL-17A, IL-17F, IL-21, IL-22, G-CSF, IL-23R and FOXP3 gene expression were determined for compound treated and untreated TH17 cell samples using Solaris qPCR Gene expression assays (Thermo Scientific) with an iCycler iQ Real-Time PCR Detection System (Bio-Rad). Individual gene expression was normalized to a panel of six reference genes (ACTB, TBP, HPRT1, PGK1, TFRC and PPIA) (Thermo Scientific) and analyzed by REST 2009 (Qiagen) in accordance to MIQE guidelines (Bustin, et al. (2009) Clin. Chem. 55, 611-622), which is hereby incorporated by reference in its entirety). The effects of compounds on TH17 cytokine mRNA levels are presented as fold change in gene expression of compound treated TH17 cells relative to DMSO treated cells in the table below.

IL-17A [5] = test: Real-time qRT-PCR gene expression in TH17 cells (IL-17A); format: cell-based, human; design: key: A: No change in gene expression observed relative to DMSO treated TH17 cells; B: Decreased gene expression observed relative to DMSO treated TH17 cells; C: Increased gene expression observed relative to DMSO treated TH17 cells; conditions: mRNA
Protocol: as §1, §3

IL-23R = test: Real-time qRT-PCR gene expression in TH17 cells (IL-23R); format: cell-based, human; design: key: A: No change in gene expression observed relative to DMSO treated TH17 cells; B: Decreased gene expression observed relative to DMSO treated TH17 cells; C: Increased gene expression observed relative to DMSO treated TH17 cells; conditions: mRNA
Protocol: as §1, §3

IL-17F [6] = test: Real-time qRT-PCR gene expression in TH17 cells (IL-17F); format: cell-based, human; design: key: A: No change in gene expression observed relative to DMSO treated TH17 cells; B: Decreased gene expression observed relative to DMSO treated TH17 cells; C: Increased gene expression observed relative to DMSO treated TH17 cells; conditions: mRNA
Protocol: as §1, §3

IL-22 [7] = test: Real-time qRT-PCR gene expression in TH17 cells (IL-22); format: cell-based, human; design: key: A: No change in gene expression observed relative to DMSO treated TH17 cells; B: Decreased gene expression observed relative to DMSO treated TH17 cells; C: Increased gene expression observed relative to DMSO treated TH17 cells; conditions: mRNA
Protocol: as §1, §3

FOXP3 = test: Real-time qRT-PCR gene expression in TH17 cells (FOXP3); format: cell-based, human; design: key: A: No change in gene expression observed relative to DMSO treated TH17 cells; B: Decreased gene expression observed relative to DMSO treated TH17 cells; C: Increased gene expression observed relative to DMSO treated TH17 cells; conditions: mRNA
Protocol: as §1, §3

IL-17AF = test: TH17 cytokine inhibition as measured by ELISA (IL-17AF); format: cell-based; conditions: 120 h; human CD4+ T cells differentiated to TH17 over 5 days, supernatant ELISA, vs DMSO
Protocol: as §1, §2

human RORγ LBD = human RORγ LBD (Homo sapiens (Human), UniProt P51449); test: RORγ LBD binding (Human RORγ Assay System, INDIGO Biosciences)
Protocol: Compound binding to the human RORγ LBD was assessed using the Human RORγ Assay System (INDIGO Biosciences Inc.) as per manufacturer's instructions.

human RORγ LBD, sequence (P51449 269-508): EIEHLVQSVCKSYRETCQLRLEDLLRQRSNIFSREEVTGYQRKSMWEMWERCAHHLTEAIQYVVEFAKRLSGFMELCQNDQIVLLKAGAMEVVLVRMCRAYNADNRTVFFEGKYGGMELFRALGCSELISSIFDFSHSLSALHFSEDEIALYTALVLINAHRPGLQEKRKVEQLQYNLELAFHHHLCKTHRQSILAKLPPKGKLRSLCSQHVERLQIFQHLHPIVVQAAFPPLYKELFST

Compound	IC50 (IL-17A [1])	% change in TH17 cell number (TH17 cells)	IC50 (IL-22 [2])	viability [3]	IC50 (IL-17F [4])	Change in gene expression of compound treated TH17 cells relative to DMSO treated cells, IL-21 (IL-21)	Change in gene expression of compound treated TH17 cells relative to DMSO treated cells, IL-17A (IL-17A [5])	Change in gene expression of compound treated TH17 cells relative to DMSO treated cells, IL-23R (IL-23R)	Change in gene expression of compound treated TH17 cells relative to DMSO treated cells, IL-17F (IL-17F [6])	Change in gene expression of compound treated TH17 cells relative to DMSO treated cells, IL-22 (IL-22 [7])	Change in gene expression of compound treated TH17 cells relative to DMSO treated cells, FOXP3 (FOXP3)	IC50 (IL-17AF)	IC50 (human RORγ LBD)
NC(=O)c1ccc2c(c1)CCN2Cc1ccc(C(O)(C(F)(F)F)C(F)(F)F)cc1 [Example 11, 1-(4-(1,1,1,3,3,3-hexafluoro-2-hydroxypropan-2-yl)benzyl)indoline-5-carboxamide]	< 10 µM	B (≦50% decrease in cell proliferation relative to DMSO treated TH17 cells)	< 10 µM	> 80%	< 10 µM								
CN(C)C(=O)c1ccc2c(ccc(=O)n2Cc2ccc(C(O)(C(F)(F)F)C(F)(F)F)cc2)c1 [Example 10, 1-(4-(1,1,1,3,3,3-hexafluoro-2-hydroxypropan-2-yl)benzyl)-N,N-dimethyl-2-oxo-1,2-dihydroquinoline-6-carboxamide]	< 10 µM	B (≦50% decrease in cell proliferation relative to DMSO treated TH17 cells)	> 10 µM	> 80%	> 10 µM	A	A	A	A	A	A		
CNC(=O)c1ccc2c(c1)CCC(=O)N2Cc1ccc(C(O)(C(F)(F)F)C(F)(F)F)cc1 [Example 6, 1-(4-(1,1,1,3,3,3-hexafluoro-2-hydroxypropan-2-yl)benzyl)-N-methyl-2-oxo-1,2,3,4-tetrahydroquinoline-6-carboxamide]	> 10 µM			> 80%	> 10 µM							< 10 µM	> 10 µM
CNC(=O)c1ccc2c(c1)CCN2Cc1ccc(C(O)(C(F)(F)F)C(F)(F)F)cc1 [Example 12, 1-(4-(1,1,1,3,3,3-hexafluoro-2-hydroxypropan-2-yl)benzyl)-N-methylindoline-5-carboxamide]	< 10 µM	B (≦50% decrease in cell proliferation relative to DMSO treated TH17 cells)	> 10 µM	> 80%	< 10 µM								
CN(C)C(=O)c1ccc2c(c1)CCC(=O)N2Cc1ccc(C(O)(C(F)(F)F)C(F)(F)F)cc1 [Example 7, 1-(4-(1,1,1,3,3,3-hexafluoro-2-hydroxypropan-2-yl)benzyl)-N,N-dimethyl-2-oxo-1,2,3,4-tetrahydroquinoline-6-carboxamide]	< 10 µM			> 80%	< 10 µM							> 10 µM	
NC(=O)c1ccc2c(c1)CCC(=O)N2Cc1ccc(C(O)(C(F)(F)F)C(F)(F)F)cc1 [Example 5, 1-(4-(1,1,1,3,3,3-hexafluoro-2-hydroxypropan-2-yl)benzyl)-2-oxo-1,2,3,4-tetrahydroquinoline-6-carboxamide]	> 10 µM			> 80%	> 10 µM							> 10 µM	
CNC(=O)c1ccc2c(ccc(=O)n2Cc2ccc(C(O)(C(F)(F)F)C(F)(F)F)cc2)c1 [Example 9, 1-(4-(1,1,1,3,3,3-hexafluoro-2-hydroxypropan-2-yl)benzyl)-N-methyl-2-oxo-1,2-dihydroquinoline-6-carboxamide]	> 10 µM	B (≦50% decrease in cell proliferation relative to DMSO treated TH17 cells)	> 10 µM	> 80%	> 10 µM	B	B	A	B	B	A		
NC(=O)c1ccc2c(ccc(=O)n2Cc2ccc(C(O)(C(F)(F)F)C(F)(F)F)cc2)c1 [Example 8, 1-(4-(1,1,1,3,3,3-hexafluoro-2-hydroxypropan-2-yl)benzyl)-2-oxo-1,2-dihydroquinoline-6-carboxamide]	< 10 µM	B (≦50% decrease in cell proliferation relative to DMSO treated TH17 cells)	> 10 µM	> 80%	< 10 µM	A	A	A	B	C	A		
CN(C)C(=O)c1ccc2c(c1)CCN2Cc1ccc(C(O)(C(F)(F)F)C(F)(F)F)cc1 [Example 13, 1-(4-(1,1,1,3,3,3-hexafluoro-2-hydroxypropan-2-yl)benzyl)-N,N-dimethylindoline-5-carboxamide]	< 10 µM	B (≦50% decrease in cell proliferation relative to DMSO treated TH17 cells)	< 10 µM	> 80%	< 10 µM								
NC(=O)c1ccc2c(c1)CCCN2Cc1ccc(C(O)(C(F)(F)F)C(F)(F)F)cc1 [Example 2, 1-(4-(1,1,1,3,3,3-hexafluoro-2-hydroxypropan-2-yl)benzyl)-1,2,3,4-tetrahydroquinoline-6-carboxamide]	< 10 µM	B (≦50% decrease in cell proliferation relative to DMSO treated TH17 cells)	< 10 µM	> 80%	< 10 µM	A	A	A	A	A	A	< 10 µM	
